“Also recorded” adds a separate entry of the source. Read-outs that look alike come from different tables or passages of the source.
Tests used:
[1] = test system: KIT D816V variant allele fraction; test: KIT D816V variant allele fraction in BM by central ddPCR; assay type: in vivo, human; conditions: for Complete elimination of measurable KIT D816V VAF, patients: post hoc
Protocol: Other secondary endpoints included PK, DOR and changes in measures of mast cell burden (percentage of BM mast cells, serum tryptase concentration, KIT D816V VAF by ddPCR (detection limit 0.17%), and spleen and liver volumes). PROs were measured by daily completion of AdvSM-SAF (described below) for patients in part 2 as a secondary outcome[37]–[39]. Exploratory endpoints included time to response, PFS and OS.
Responses were assessed according to the protocol schedule. Spleen size was assessed by palpation and by imaging with calculation of volume centrally. KIT D816V VAF in the BM (or in blood if unavailable) was centrally measured using a validated ddPCR assay with a lower limit of detection of 0.17% (Bio-Rad). Other somatic mutations in BM were centrally assayed at baseline by next-generation sequencing.

[2] = test system: patients with AdvSM and other myeloid malignancies; test: 3 + 3 dose escalation: MTD, DLT and RP2D; assay type: in vivo
Protocol: This phase 1, open-label study comprised a dose-escalation phase (part 1) and a dose-expansion phase (part 2; Fig. 1). During dose escalation, patients received oral avapritinib at starting doses ranging from 30 to 400 mg QD in continuous 28-d treatment cycles. Dose escalation followed a 3 + 3 design (described below) until the MTD or RP2D was determined. During part 1, intra-patient dose escalation to assess dose levels not exceeding the MTD was allowed. Dose expansion was initially conducted at a starting dose of 300 mg QD; a second expansion cohort at 200 mg QD was subsequently introduced via protocol amendment. Dosing continued until patients experienced unacceptable toxicity, disease progression, death or withdrew consent.
The 3 + 3 dose-escalation design used cohorts of three to six patients. The first cohort received avapritinib at a starting dose of 30 mg daily. […] Three patients were enrolled initially in each cohort with an additional accrual of three patients if the cohort required expansion due to DLT. Once the escalation cohort was full, up to three additional patients (diagnosis of AdvSM only) could be enrolled into an enrichment cohort at a lower dose. Data from these patients were intended for further exploration of PK, pharmacodynamics and safety in patients with AdvSM.
The safety population included all enrolled patients and was used to report AEs and PROs (in those who completed the questionnaire). The dose-determining population included all patients in a cohort in part 1 who received ≥21 prescribed avapritinib doses in C1 and completed follow-up through C1, or experienced DLT. The determination of the MTD and RP2D were based on the dose-determining population. […] The AdvSM safety population was also used to report AEs and OS. […] The response-evaluable population was used to report adjudicated response rates and PFS. The PK population comprised all patients with sufficient plasma concentration–time data to reliably estimate the PK parameters of avapritinib.

KIT D816V = test system: KIT D816V; parameters: method as in PMID 29093181; conditions: immunoblot in a xenograft model; cited from earlier work
AdvSM symptom burden = test: Patient-reported outcomes: AdvSM-SAF total symptom score; assay type: in vivo, human; conditions: C11; P = 0.002, n = 20; baseline 19.1 points (n = 40)
Excerpt: The AdvSM-SAF comprises a ten-item questionnaire completed by the patient daily, specifically designed to assess symptoms related to AdvSM and measure the impact of treatments on patient symptom improvement. […] The AdvSM-SAF assesses the severity of eight symptoms of AdvSM, including abdominal pain, nausea, vomiting, diarrhea, spots, itching, flushing and fatigue over a 24-h period on a numerical rating scale, and also measures the frequency of vomiting and diarrhea by asking patients to enter a discrete numerical value. Data were analyzed at the item level, domain level and total score level. Domain level analyses are: • Gastrointestinal symptoms score (abdominal pain, nausea, vomiting and diarrhea severity (range 0–40)) • Skin symptom score (spots, itching and flushing severity (range 0–30))
The TSS was achieved by summing all eight severity items (range 0–80).

[3] = Plasma pharmacokinetics, non-compartmental analysis; assay type: in vivo, human
Protocol: On D1 and D15 of C1, blood samples for PK analysis were collected before the dose, and 0.5, 1, 2, 4, 8 and 24 h (C1D1 only) after the dose. C2D1 pre-dose concentration was used as the C1D15 24-h concentration for PK analysis. Additional pre-dose samples were collected on D1 of C3 and C4. Avapritinib PK parameters were obtained by non-compartmental analysis of the plasma concentration data versus nominal time using Phoenix WinNonlin© (version 8.0, Certara).
Plasma concentration–time profiles across dose levels and dose versus systemic exposure (Cmax and AUC) relationships were assessed graphically. Systemic exposure parameters of interest included the arithmetic and geometric mean, Cmax and AUC, and 90% CIs.

Structure (SMILES): Cn1cc(-c2cc3c(N4CCN(c5ncc([C@@](C)(N)c6ccc(F)cc6)cn5)CC4)ncnn3c2)cn1 [avapritinib]
- Patients with KIT D816V VAF in BM reduced from baseline by ≥50% ([1]; patients with AdvSM, ddPCR): 80%
- Patients in whom KIT D816V VAF in BM became undetectable ([1]; patients with AdvSM, ddPCR limit of detection 0.17%): 30%
- Complete elimination of measurable KIT D816V VAF, patients ([1]; best response CR (n = 8)): 63%
- Complete elimination of measurable KIT D816V VAF, patients ([1]; best response CRh (n = 8)): 50%
- Complete elimination of measurable KIT D816V VAF, patients ([1]; best response PR (n = 13)): 23%
- Complete elimination of measurable KIT D816V VAF, patients ([1]; clinical improvement (n = 2) or stable disease (n = 11)): 15%
- Maximum tolerated dose (MTD) ([2]; doses of 30–400 mg once daily): No maximum tolerated dose (MTD) was determined; also recorded: not reached
- Recommended phase 2 dose (RP2D) ([2]; human, in vivo, 28 d): 200 mg
- Recommended phase 2 dose (RP2D) initially selected for part 2 ([2]; human, in vivo, 28 d): 300 mg QD
- Patients with dose-limiting toxicity (DLT) ([2]; in vivo): one
- In vivo IC90 for inhibition of KIT D816V in xenograft model (KIT D816V): 0.189 µg/mL
- Mean change from baseline AdvSM-SAF TSS (AdvSM symptom burden): −10.9 points
- Time at which steady state was reached ([3]; QD dosing): ≤ 15 days
- half-life ([3]; human, plasma, oral, Cycle 1 Day 15, read-out: Steady state t½): > 20 h
- half-life ([3]; human, plasma, oral, range across doses, read-out: Mean plasma elimination half-life): 19.8 to 38.3 h
- AUC ([3]; human, plasma, oral, 200 mg QD, C1 D15, CV 54.2%, n = 16, read-out: Steady-state geometric mean AUC0-τ): 7340 ng·h/mL
- Cmax ([3]; human, plasma, oral, 200 mg QD, C1 D15, CV 62.2%, n = 18, read-out: Steady-state geometric mean maximum plasma concentration (Cmax)): 433 ng/mL
- Tmax ([3]; human, plasma, single oral doses of 30 to 400 mg, read-out: Time to maximum plasma concentration (Tmax)): 2 to 4 h

From article PMC8674134, “Safety and efficacy of avapritinib in advanced systemic mastocytosis: the phase 1 EXPLORER trial” (Nature Medicine, 2021)
